Laboratory results: patent US10597388B2, “Pyridazinone herbicides” (FMC CORPORATION, priority 2014, dated 2020)

Tests used:
Assay type in all cases: in vivo
[1] = test system: pigweed (Amaranthus retroflexus); assay: Test C greenhouse herbicide test, pre- and postemergence
From the text: (§1) Seeds of plant species selected from blackgrass (Alopecurus myosuroides), ryegrass, Italian (Italian ryegrass, Lolium multiflorum), wheat (winter wheat, Triticum aestivum), galium (catchweed bedstraw, Galium aparine), corn (Zea mays), large crabgrass, large (large crabgrass, Digitaria sanguinalis), foxtail, giant (giant foxtail, Setaria faberii), johnsongrass (Sorghum halepense), lambsquarters (Chenopodium album), morningglory (Ipomoea coccinea), nutsedge, yellow (yellow nutsedge, Cyperus esculentus), pigweed (Amaranthus retroflexus), ragweed (common ragweed, Ambrosia elatior), soybean (Glycine max), barnyardgrass (Echinochloa crus-galli), oilseed rape (Brassica napus), waterhemp (common waterhemp, Amaranthus rudis), and velvetleaf (Abutilon theophrasti) were planted into a blend of loam soil and sand and treated preemergence with test chemicals formulated in a non-phytotoxic solvent mixture which included a surfactant.
(§2) At the same time, plants selected from these crop and weed species and also chickweed (common chickweed, Stellaria media), kochia (Kochia scoparia), and oat, wild (wild oat, Avena fatua), were planted in pots containing Redi-Earth® planting medium (Scotts Company, 14111 Scottslawn Road, Marysville, Ohio 43041) comprising spaghnum peat moss, vermiculite, wetting agent and starter nutrients and treated with postemergence applications of test chemicals formulated in the same manner. Plants ranged in height from 2 to 18 cm (1- to 4-leaf stage) for postemergence treatments. Treated plants and controls were maintained in a greenhouse for 13 to 15 d, after which time all species were compared to controls and visually evaluated. Plant response ratings, summarized in Table C, are based on a scale of 0 to 100 where 0 is no effect and 100 is complete control. A dash (-) response means no test result.

[2] = test system: blackgrass (Alopecurus myosuroides); assay: as above
From the text: as §1, §2

[3] = test system: morningglory (Ipomoea coccinea); assay: as above
From the text: as §1, §2

[4] = test system: ryegrass, Italian (Italian ryegrass, Lolium multiflorum); assay: as above
From the text: as §1, §2

[5] = test system: velvetleaf (Abutilon theophrasti); assay: as above
From the text: as §1, §2

corn (Zea mays) = assay: as above
From the text: as §1, §2

[6] = test system: wheat (Triticum aestivum); assay: Test A greenhouse herbicide test, pre- and postemergence; conditions: Postemergence; for Plant response rating, Wheat: 125 g ai/ha, 0 to 100 scale where 0 is no effect and 100 is complete control; for Wheat plant response rating: 500 g ai/ha, 0 to 100 scale, 0 is no effect, 100 is complete control
How it was run: (§3)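 Visual injury ratings, 0 (no effect) to 100 (complete control), versus untreated plants after roughly 10 d in a greenhouse. Compounds, formulated in a surfactant-containing non-phytotoxic solvent, were sprayed on loam–sand soil after sowing (pre) or on one- to two-leaf plants 2–10 cm tall (post).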

[7] = test system: pigweed (Amaranthus retroflexus); assay: as above
How it was run: as §3

[8] = test system: foxtail, giant (giant foxtail, Setaria faberii); assay: as above
How it was run: as §3

kochia (Kochia scoparia) = assay: as above
How it was run: as §3

[9] = test system: ragweed (common ragweed, Ambrosia elatior); assay: as above
How it was run: as §3

[10] = Postemergence, 31 g ai/ha, 0 to 100 scale (0 no effect, 100 complete control)
[11] = Postemergence, 125 g ai/ha, scale 0 to 100, 0 is no effect, 100 is complete control
[12] = Postemergence, 250 g ai/ha, scale 0 to 100, 0 no effect, 100 complete control, 13 to 15 d
[13] = Preemergence, 31 g ai/ha, scale 0 to 100, 0 is no effect, 100 is complete control
[14] = Preemergence, 62 g ai/ha, scale 0 to 100, 0 is no effect, 100 is complete control
[15] = Preemergence, 125 g ai/ha, scale 0 to 100, 0 is no effect, 100 is complete control
[16] = Preemergence, 250 g ai/ha, scale 0 to 100, 0 no effect, 100 complete control
[17] = postemergence, 62 g ai/ha, scale 0 to 100, 0 no effect, 100 complete control
[18] = Postemergence, 125 g ai/ha, 0 to 100 scale where 0 is no effect and 100 is complete control
[19] = Postemergence, 500 g ai/ha, 0 to 100 scale, 0 is no effect, 100 is complete control
[20] = Preemergence, 125 g ai/ha, 0 to 100 scale where 0 is no effect and 100 is complete control
[21] = Preemergence, 500 g ai/ha, 0 to 100 scale where 0 is no effect and 100 is complete control

## Cc1nn(C)c(=O)c(-c2ccc(Br)c3ccccc23)c1O [Compound 75]
[1]; [10]
  Pigweed plant response rating: 85
[1]; [11]
  Plant response rating, Pigweed: 100
[1]; [12]
  Plant response rating, Pigweed: 98
[1]; [13]
  Plant response rating, Pigweed: 85
[1]; [14]
  Plant response rating, Pigweed: 100
[1]; [15]
  Plant response rating, Pigweed: 100
[1]; [16]
  Pigweed plant response rating: 100
[1]; [17]
  Pigweed plant response rating: 95
[2]; [10]
  Blackgrass plant response rating: 5
[2]; [11]
  Plant response rating, Blackgrass: 20
[2]; [12]
  Plant response rating, Blackgrass: 35
[2]; [13]
  Plant response rating, Blackgrass: 20
[2]; [14]
  Plant response rating, Blackgrass: 30
[2]; [15]
  Plant response rating, Blackgrass: 30
[2]; [16]
  Blackgrass plant response rating: 30
[2]; [17]
  Blackgrass plant response rating: 5
[3]; [10]
  Morningglory plant response rating: 98
[3]; [11]
  Plant response rating, Morningglory: 100
[3]; [12]
  Plant response rating, Morningglory: 75
[3]; [13]
  Plant response rating, Morningglory: 70
[3]; [14]
  Plant response rating, Morningglory: 85
[3]; [15]
  Plant response rating, Morningglory: 95
[3]; [16]
  Morningglory plant response rating: 100
[3]; [17]
  Morningglory plant response rating: 100
[4]; [10]
  Ryegrass, Italian plant response rating: 80
[4]; [11]
  Plant response rating, Ryegrass, Italian: 85
[4]; [12]
  Plant response rating, Ryegrass, Italian: 85
[4]; [13]
  Plant response rating, Ryegrass, Italian: 90
[4]; [14]
  Plant response rating, Ryegrass, Italian: 90
[4]; [15]
  Plant response rating, Ryegrass, Italian: 90
[4]; [16]
  Ryegrass, Italian plant response rating: 90
[4]; [17]
  Ryegrass, Italian plant response rating: 80
[5]; [10]
  Velvetleaf plant response rating: 70
[5]; [11]
  Plant response rating, Velvetleaf: 85
[5]; [12]
  Plant response rating, Velvetleaf: 85
[5]; [13]
  Plant response rating, Velvetleaf: 35
[5]; [14]
  Plant response rating, Velvetleaf: 85
[5]; [15]
  Plant response rating, Velvetleaf: 90
[5]; [16]
  Velvetleaf plant response rating: 98
[5]; [17]
  Velvetleaf plant response rating: 50
Corn (Zea mays); [10]
  Corn plant response rating: 5
Corn (Zea mays); [11]
  Plant response rating, Corn: 10
Corn (Zea mays); [12]
  Plant response rating, Corn: 10
Corn (Zea mays); [13]
  Plant response rating, Corn: 0
Corn (Zea mays); [14]
  Plant response rating, Corn: 5
Corn (Zea mays); [15]
  Plant response rating, Corn: 0
Corn (Zea mays); [16]
  Corn plant response rating: 10
Corn (Zea mays); [17]
  Corn plant response rating: 5
[6]
  Plant response rating, Wheat: 0
  Wheat plant response rating: 20
[7]; [18]
  Plant response rating, Pigweed: 30
[7]; [19]
  Pigweed plant response rating: 50
[7]; [20]
  Pigweed plant response rating: 100
[7]; [21]
  Plant response rating, Pigweed: 100
[8]; [18]
  Plant response rating, Foxtail, Giant: 50
[8]; [19]
  Foxtail, Giant plant response rating: 50
[8]; [20]
  Foxtail, Giant plant response rating: 50
[8]; [21]
  Plant response rating, Foxtail, Giant: 90
Kochia (Kochia scoparia); [18]
  Plant response rating, Kochia: 80
Kochia (Kochia scoparia); [19]
  Kochia plant response rating: 90
Kochia (Kochia scoparia); [20]
  Kochia plant response rating: 80
Kochia (Kochia scoparia); [21]
  Plant response rating, Kochia: 90
[9]; [18]
  Plant response rating, Ragweed: 60
[9]; [19]
  Ragweed plant response rating: 90
[9]; [20]
  Ragweed plant response rating: 70
[9]; [21]
  Plant response rating, Ragweed: 90

## CCC(=O)Oc1c(C)nn(C)c(=O)c1-c1c(C)ccc2ccccc12 [Compound 78]
[1]; [10]
  Pigweed plant response rating: 50
[1]; [11]
  Plant response rating, Pigweed: 75
[1]; [12]
  Plant response rating, Pigweed: 80
[1]; [17]
  Pigweed plant response rating: 60
[2]; [10]
  Blackgrass plant response rating: 0
[2]; [11]
  Plant response rating, Blackgrass: 5
[2]; [12]
  Plant response rating, Blackgrass: 30
[2]; [17]
  Blackgrass plant response rating: 5
[3]; [10]
  Morningglory plant response rating: 20
[3]; [11]
  Plant response rating, Morningglory: 65
[3]; [12]
  Plant response rating, Morningglory: 65
[3]; [17]
  Morningglory plant response rating: 40
[4]; [10]
  Ryegrass, Italian plant response rating: 55
[4]; [11]
  Plant response rating, Ryegrass, Italian: 85
[4]; [12]
  Plant response rating, Ryegrass, Italian: 90
[4]; [17]
  Ryegrass, Italian plant response rating: 65
[5]; [10]
  Velvetleaf plant response rating: 0
[5]; [11]
  Plant response rating, Velvetleaf: 35
[5]; [12]
  Plant response rating, Velvetleaf: 60
[5]; [17]
  Velvetleaf plant response rating: 10
Corn (Zea mays); [10]
  Corn plant response rating: 0
Corn (Zea mays); [11]
  Plant response rating, Corn: 10
Corn (Zea mays); [12]
  Plant response rating, Corn: 0
Corn (Zea mays); [17]
  Corn plant response rating: 0
[6]
  Plant response rating, Wheat: 0
  Wheat plant response rating: 60
[7]; [18]
  Plant response rating, Pigweed: 60
[7]; [19]
  Pigweed plant response rating: 90
[7]; [20]
  Pigweed plant response rating: 60
[7]; [21]
  Plant response rating, Pigweed: 100
[8]; [18]
  Plant response rating, Foxtail, Giant: 20
[8]; [19]
  Foxtail, Giant plant response rating: 70
[8]; [20]
  Foxtail, Giant plant response rating: 20
[8]; [21]
  Plant response rating, Foxtail, Giant: 60
Kochia (Kochia scoparia); [18]
  Plant response rating, Kochia: 50
Kochia (Kochia scoparia); [19]
  Kochia plant response rating: 90
Kochia (Kochia scoparia); [20]
  Kochia plant response rating: 20
Kochia (Kochia scoparia); [21]
  Plant response rating, Kochia: 100
[9]; [18]
  Plant response rating, Ragweed: 40
[9]; [19]
  Ragweed plant response rating: 80
[9]; [20]
  Ragweed plant response rating: 60
[9]; [21]
  Plant response rating, Ragweed: 90

## Cc1ccc2sc(Br)c(-c3c(O)c(C)nn(C)c3=O)c2c1 [Compound 79]
[1]; [10]
  Pigweed plant response rating: 90
[1]; [11]
  Plant response rating, Pigweed: 98
[1]; [12]
  Plant response rating, Pigweed: 98
[1]; [13]
  Plant response rating, Pigweed: 100
[1]; [14]
  Plant response rating, Pigweed: 100
[1]; [15]
  Plant response rating, Pigweed: 100
[1]; [16]
  Pigweed plant response rating: 100
[1]; [17]
  Pigweed plant response rating: 98
[2]; [10]
  Blackgrass plant response rating: 5
[2]; [11]
  Plant response rating, Blackgrass: 35
[2]; [12]
  Plant response rating, Blackgrass: 50
[2]; [13]
  Plant response rating, Blackgrass: 20
[2]; [14]
  Plant response rating, Blackgrass: 50
[2]; [15]
  Plant response rating, Blackgrass: 60
[2]; [16]
  Blackgrass plant response rating: 85
[2]; [17]
  Blackgrass plant response rating: 10
[3]; [10]
  Morningglory plant response rating: 100
[3]; [11]
  Plant response rating, Morningglory: 100
[3]; [12]
  Plant response rating, Morningglory: 98
[3]; [13]
  Plant response rating, Morningglory: 90
[3]; [14]
  Plant response rating, Morningglory: 95
[3]; [15]
  Plant response rating, Morningglory: 98
[3]; [16]
  Morningglory plant response rating: 98
[3]; [17]
  Morningglory plant response rating: 100
[4]; [10]
  Ryegrass, Italian plant response rating: 50
[4]; [11]
  Plant response rating, Ryegrass, Italian: 85
[4]; [12]
  Plant response rating, Ryegrass, Italian: 85
[4]; [13]
  Plant response rating, Ryegrass, Italian: 20
[4]; [14]
  Plant response rating, Ryegrass, Italian: 90
[4]; [15]
  Plant response rating, Ryegrass, Italian: 90
[4]; [16]
  Ryegrass, Italian plant response rating: 90
[4]; [17]
  Ryegrass, Italian plant response rating: 60
[5]; [10]
  Velvetleaf plant response rating: 75
[5]; [11]
  Plant response rating, Velvetleaf: 90
[5]; [12]
  Plant response rating, Velvetleaf: 90
[5]; [13]
  Plant response rating, Velvetleaf: 80
[5]; [14]
  Plant response rating, Velvetleaf: 85
[5]; [15]
  Plant response rating, Velvetleaf: 95
[5]; [16]
  Velvetleaf plant response rating: 95
[5]; [17]
  Velvetleaf plant response rating: 85
Corn (Zea mays); [10]
  Corn plant response rating: 0
Corn (Zea mays); [11]
  Plant response rating, Corn: 25
Corn (Zea mays); [12]
  Plant response rating, Corn: 35
Corn (Zea mays); [13]
  Plant response rating, Corn: 0
Corn (Zea mays); [14]
  Plant response rating, Corn: 0
Corn (Zea mays); [15]
  Plant response rating, Corn: 5
Corn (Zea mays); [16]
  Corn plant response rating: 5
Corn (Zea mays); [17]
  Corn plant response rating: 0
[6]
  Plant response rating, Wheat: 0
  Wheat plant response rating: 0
[7]; [18]
  Plant response rating, Pigweed: 90
[7]; [19]
  Pigweed plant response rating: 90
[7]; [20]
  Pigweed plant response rating: 100
[7]; [21]
  Plant response rating, Pigweed: 100
[8]; [18]
  Plant response rating, Foxtail, Giant: 70
[8]; [19]
  Foxtail, Giant plant response rating: 80
[8]; [20]
  Foxtail, Giant plant response rating: 90
[8]; [21]
  Plant response rating, Foxtail, Giant: 90
Kochia (Kochia scoparia); [18]
  Plant response rating, Kochia: 80
Kochia (Kochia scoparia); [19]
  Kochia plant response rating: 90
Kochia (Kochia scoparia); [20]
  Kochia plant response rating: 70
Kochia (Kochia scoparia); [21]
  Plant response rating, Kochia: 90
[9]; [18]
  Plant response rating, Ragweed: 90
[9]; [19]
  Ragweed plant response rating: 90
[9]; [20]
  Ragweed plant response rating: 80
[9]; [21]
  Plant response rating, Ragweed: 80
